Species on record: Rattus norvegicus
Experiment: DrugMatrix - Regimen: Daily Repeat
Format: toxicity, organism-based, Sprague-Dawley
Design: regimen Daily Repeat, gender Male, age 6-8 weeks
Settings: in vivo, po, route oral GAVAGE, vehicle .5 % CMC; for ABSOLUTE BASOPHIL / ABSOLUTE EOSINOPHIL / ABSOLUTE LYMPHOCYTE / ABSOLUTE MONOCYTE / ABSOLUTE SEGMENTED NEUTROPHIL / BASOPHIL / EOSINOPHIL / ERYTHROCYTE COUNT / HEMATOCRIT / HEMOGLOBIN / LEUKOCYTE COUNT / LYMPHOCYTE / MEAN CORPUSCULAR HEMOGLOBIN / MEAN CORPUSCULAR HEMOGLOBIN CONCENTRATION / MEAN CORPUSCULAR VOLUME / MONOCYTE / NEUTROPHIL / NUCLEATED RED BLOOD CELLS / PLATELET COUNT: tissue Blood; for ALANINE AMINOTRANSFERASE / ALBUMIN / ALKALINE PHOSPHATASE / ASPARTATE AMINOTRANSFERASE / BLOOD UREA NITROGEN / CARBON DIOXIDE / CHLORIDE / CHOLESTEROL / CREATINE PHOSPHOKINASE / CREATININE / GLUCOSE / LACTATE DEHYDROGENASE / LIPASE / PHOSPHORUS / POTASSIUM / SODIUM / TOTAL BILIRUBIN / TOTAL PROTEIN / URIC ACID: tissue Plasma
[1] = 12 mg/kg, 72 h, dose level Low, time 3 day
[2] = 12 mg/kg, 120 h, dose level Low, time 5 day
[3] = 1200 mg/kg, 72 h, dose level High, time 3 day
[4] = 1200 mg/kg, 120 h, dose level High, time 5 day

CC(=O)OCC(COC(C)=O)OC(C)=O [TRIACETIN]
ABSOLUTE BASOPHIL [1]: 0 CELLS/uL | ABSOLUTE EOSINOPHIL [1]: 0 CELLS/uL | ABSOLUTE LYMPHOCYTE [1]: 13591 CELLS/uL | ABSOLUTE MONOCYTE [1]: 0 CELLS/uL | ABSOLUTE SEGMENTED NEUTROPHIL [1]: 1342.33 CELLS/uL | BASOPHIL [1]: 0% | EOSINOPHIL [1]: 0% | ERYTHROCYTE COUNT [1]: 5.57 x10E6/uL | HEMATOCRIT [1]: 35.43% | HEMOGLOBIN [1]: 13.97 G/DL | LEUKOCYTE COUNT [1]: 14.93 x10E3/uL | LYMPHOCYTE [1]: 91.33% | MEAN CORPUSCULAR HEMOGLOBIN [1]: 25.13 pg | MEAN CORPUSCULAR HEMOGLOBIN CONCENTRATION [1]: 39.43 G/DL | MEAN CORPUSCULAR VOLUME [1]: 63.77 fL | MONOCYTE [1]: 0% | NEUTROPHIL [1]: 8.67% | NUCLEATED RED BLOOD CELLS [1]: 0 /100WBC | PLATELET COUNT [1]: 1332 x10E3/uL | ALANINE AMINOTRANSFERASE [1]: 52 u/L | ALBUMIN [1]: 4.5 G/DL | ALKALINE PHOSPHATASE [1]: 453.33 u/L | ASPARTATE AMINOTRANSFERASE [1]: 96.33 u/L | BLOOD UREA NITROGEN [1]: 14.33 mg/dL | CARBON DIOXIDE [1]: 21.67 mmol/L | CHLORIDE [1]: 105 MEQ/L | CHOLESTEROL [1]: 71.67 mg/dL | CREATINE PHOSPHOKINASE [1]: 251 u/L | CREATININE [1]: 0.21 mg/dL | GLUCOSE [1]: 185 mg/dL | LACTATE DEHYDROGENASE [1]: 165.33 u/L | LIPASE [1]: 9.33 u/L | PHOSPHORUS [1]: 13.93 mg/dL | POTASSIUM [1]: 6.64 MEQ/L | SODIUM [1]: 149.57 MEQ/L | TOTAL BILIRUBIN [1]: 0.17 mg/dL | TOTAL PROTEIN [1]: 6.2 G/DL | URIC ACID [1]: 2.07 mg/dL | ABSOLUTE BASOPHIL [2]: 0 CELLS/uL | ABSOLUTE EOSINOPHIL [2]: 0 CELLS/uL | ABSOLUTE LYMPHOCYTE [2]: 15649 CELLS/uL | ABSOLUTE MONOCYTE [2]: 168.33 CELLS/uL | ABSOLUTE SEGMENTED NEUTROPHIL [2]: 1016 CELLS/uL | BASOPHIL [2]: 0% | EOSINOPHIL [2]: 0% | ERYTHROCYTE COUNT [2]: 5.29 x10E6/uL | HEMATOCRIT [2]: 33.97% | HEMOGLOBIN [2]: 13.27 G/DL | LEUKOCYTE COUNT [2]: 16.83 x10E3/uL | LYMPHOCYTE [2]: 93% | MEAN CORPUSCULAR HEMOGLOBIN [2]: 25.03 pg | MEAN CORPUSCULAR HEMOGLOBIN CONCENTRATION [2]: 39.07 G/DL | MEAN CORPUSCULAR VOLUME [2]: 64.17 fL | MONOCYTE [2]: 1% | NEUTROPHIL [2]: 6% | NUCLEATED RED BLOOD CELLS [2]: 0 /100WBC | PLATELET COUNT [2]: 1422 x10E3/uL | ALANINE AMINOTRANSFERASE [2]: 45.67 u/L | ALBUMIN [2]: 4.27 G/DL | ALKALINE PHOSPHATASE [2]: 402 u/L | ASPARTATE AMINOTRANSFERASE [2]: 80.33 u/L | BLOOD UREA NITROGEN [2]: 15 mg/dL | CARBON DIOXIDE [2]: 24.33 mmol/L | CHLORIDE [2]: 103.67 MEQ/L | CHOLESTEROL [2]: 58 mg/dL | CREATINE PHOSPHOKINASE [2]: 234 u/L | CREATININE [2]: 0.12 mg/dL | GLUCOSE [2]: 156 mg/dL | LACTATE DEHYDROGENASE [2]: 145 u/L | LIPASE [2]: 8.33 u/L | PHOSPHORUS [2]: 14.27 mg/dL | POTASSIUM [2]: 7.19 MEQ/L | SODIUM [2]: 146.97 MEQ/L | TOTAL BILIRUBIN [2]: 0.17 mg/dL | TOTAL PROTEIN [2]: 5.73 G/DL | URIC ACID [2]: 1.77 mg/dL | ABSOLUTE BASOPHIL [3]: 0 CELLS/uL | ABSOLUTE EOSINOPHIL [3]: 0 CELLS/uL | ABSOLUTE LYMPHOCYTE [3]: 15023 CELLS/uL | ABSOLUTE MONOCYTE [3]: 340 CELLS/uL | ABSOLUTE SEGMENTED NEUTROPHIL [3]: 1637 CELLS/uL | BASOPHIL [3]: 0% | EOSINOPHIL [3]: 0% | ERYTHROCYTE COUNT [3]: 5.45 x10E6/uL | HEMATOCRIT [3]: 35.37% | HEMOGLOBIN [3]: 13.63 G/DL | LEUKOCYTE COUNT [3]: 17 x10E3/uL | LYMPHOCYTE [3]: 88% | MEAN CORPUSCULAR HEMOGLOBIN [3]: 25 pg | MEAN CORPUSCULAR HEMOGLOBIN CONCENTRATION [3]: 38.57 G/DL | MEAN CORPUSCULAR VOLUME [3]: 64.9 fL | MONOCYTE [3]: 2% | NEUTROPHIL [3]: 10% | NUCLEATED RED BLOOD CELLS [3]: 0 /100WBC | PLATELET COUNT [3]: 1322 x10E3/uL | ALANINE AMINOTRANSFERASE [3]: 49.33 u/L | ALBUMIN [3]: 4.13 G/DL | ALKALINE PHOSPHATASE [3]: 331 u/L | ASPARTATE AMINOTRANSFERASE [3]: 79.33 u/L | BLOOD UREA NITROGEN [3]: 14 mg/dL | CARBON DIOXIDE [3]: 19 mmol/L | CHLORIDE [3]: 102 MEQ/L | CHOLESTEROL [3]: 69.67 mg/dL | CREATINE PHOSPHOKINASE [3]: 229 u/L | CREATININE [3]: 0.18 mg/dL | GLUCOSE [3]: 149.33 mg/dL | LACTATE DEHYDROGENASE [3]: 172.67 u/L | LIPASE [3]: 10 u/L | PHOSPHORUS [3]: 14.13 mg/dL | POTASSIUM [3]: 7.15 MEQ/L | SODIUM [3]: 145.03 MEQ/L | TOTAL BILIRUBIN [3]: 0.17 mg/dL | TOTAL PROTEIN [3]: 5.83 G/DL | URIC ACID [3]: 1.73 mg/dL | ABSOLUTE BASOPHIL [4]: 0 CELLS/uL | ABSOLUTE EOSINOPHIL [4]: 0 CELLS/uL | ABSOLUTE LYMPHOCYTE [4]: 12251.33 CELLS/uL | ABSOLUTE MONOCYTE [4]: 0 CELLS/uL | ABSOLUTE SEGMENTED NEUTROPHIL [4]: 1215.33 CELLS/uL | BASOPHIL [4]: 0% | EOSINOPHIL [4]: 0% | ERYTHROCYTE COUNT [4]: 5.48 x10E6/uL | HEMATOCRIT [4]: 34.33% | HEMOGLOBIN [4]: 13.57 G/DL | LEUKOCYTE COUNT [4]: 13.47 x10E3/uL | LYMPHOCYTE [4]: 91% | MEAN CORPUSCULAR HEMOGLOBIN [4]: 24.77 pg | MEAN CORPUSCULAR HEMOGLOBIN CONCENTRATION [4]: 39.6 G/DL | MEAN CORPUSCULAR VOLUME [4]: 62.6 fL | MONOCYTE [4]: 0% | NEUTROPHIL [4]: 9% | NUCLEATED RED BLOOD CELLS [4]: 0 /100WBC | PLATELET COUNT [4]: 1274.67 x10E3/uL | ALANINE AMINOTRANSFERASE [4]: 49.33 u/L | ALBUMIN [4]: 4.07 G/DL | ALKALINE PHOSPHATASE [4]: 315.33 u/L | ASPARTATE AMINOTRANSFERASE [4]: 87.67 u/L | BLOOD UREA NITROGEN [4]: 16.67 mg/dL | CARBON DIOXIDE [4]: 25 mmol/L | CHLORIDE [4]: 103 MEQ/L | CHOLESTEROL [4]: 71 mg/dL | CREATINE PHOSPHOKINASE [4]: 262.67 u/L | CREATININE [4]: 0.16 mg/dL | GLUCOSE [4]: 147.33 mg/dL | LACTATE DEHYDROGENASE [4]: 331 u/L | LIPASE [4]: 8.33 u/L | PHOSPHORUS [4]: 13.2 mg/dL | POTASSIUM [4]: 6.8 MEQ/L | SODIUM [4]: 145.37 MEQ/L | TOTAL BILIRUBIN [4]: 0.17 mg/dL | TOTAL PROTEIN [4]: 6 G/DL | URIC ACID [4]: 1.37 mg/dL

— ChEMBL document CHEMBL3885881, “DrugMatrix”
